The source of these data is US8507488B2, “Fused nitrogen containing heterocycles and compositions thereof as kinase inhibitors” (IRM LLC, priority 2008, dated 2013).

In one experiment the target is T1, Tel-TrkA (Homo sapiens, UniProt P04629).
T1 construct: dimerization domain of Tel (ETV6) transcription factor (fusion partner, human ETV6 P41212); expressed in transfected cells; host or cells: luciferase expressing Ba/F3 murine hematopoietic progenitor cells; the other entry of the earlier key: ETV6 (P41212, Transcription factor ETV6)
Nature of the experiment: Inhibition of proliferation of Ba/F3 cells expressing Tel-TrkA (BaF3/Tel-TrkA, luciferase/Bright Glo readout). Format: cell-based. The following applies: read-out: Ba/F3 Tel-TrkA IC 50. The procedure, abridged: (§1)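 Luciferase-expressing murine Ba/F3 cells transformed with human Tel-TrkA or Tel-TrkB, plated at 2000 cells/well in IL3-free RPMI/10% FBS. Exposed to 12 concentrations of 3-fold serially diluted compound for 48 hours at 37° C, 5% CO2. Bright Glo luminescence read-out, with IC50 from linear regression of percent inhibition.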

The target in a further experiment is T2, Tel-TrkB (Homo sapiens, UniProt Q16620).
T2 construct: dimerization domain of Tel (ETV6) transcription factor (fusion partner, human ETV6 P41212); expressed in transfected cells; host or cells: luciferase expressing Ba/F3 murine hematopoietic progenitor cells; the other entry of the earlier key: ETV6 (P41212, Transcription factor ETV6)
Nature of the experiment: Inhibition of proliferation of Ba/F3 cells expressing Tel-TrkB (BaF3/Tel-TrkB). In kind it is cell-based. The following applies: Ba/F3 Tel-TrkB cells; read-out: Ba/F3 Tel-TrkB IC 50. The gist of the method:
as §1

The next experiment deals with T3, Tel-TrkC (Homo sapiens, UniProt Q16288).
T3 construct: The cells also express luciferase as the viability read-out; it is not fused to the kinase; P41212 (Transcription factor ETV6)
Description: Inhibition of proliferation of Ba/F3 cells expressing Tel-TrkC (BaF3/Tel-TrkC). In kind it is cell-based. The note with it: read-out: Ba/F3 Tel-TrkC IC 50. As for the experimental part:
Test compounds were dissolved in DMSO (10 mM) and transferred into 1.4 mL flat bottom or V-shaped Matrix tubes carrying a unique 2D matrix chip by individual compound hubs. The numbers of these chips were distinctively linked to the individual compound identification numbers. The stock solutions were stored at −20° C. if not used immediately. For the test procedure the vials were defrosted and identified by a scanner whereby a working sheet is generated that guides the subsequent working steps.
Compound dilutions were made in 384 well plates. This format enabled the assay of maximally 28 individual test compounds at 12 concentrations (single points) including 2 reference compounds. The dilution protocol included the production of pre-dilution plates, master plates and assay plates: • Compound plates: 30 μL of individual compound (10 mM) DMSO solution including standard compound were transferred into columns 1 and 13 of a 384 well plate. 20 μL of DMSO were added to the rest of the wells and the compounds were serially diluted (1:3) by transferring 10 μL from a well in column 1 or 13 to the next well in column 2 or 14 respectively and successively with the help of a Minitrack robot. • Assay plates: Identical assay plates were then prepared by adding […] each of compound dilutions of the compound plates into 384-well “assay plates”. In the following the compounds were mixed with 50 μL of assays components (cells or enzyme) and tested for their inhibitory activity.
Compounds of Formula (I) were tested for their antiproliferative effect on Ba/F3 cells expressing either Tel-TrkA, Tel-TrkB or Tel-TrkC and an additional panel of 34 selected diverse kinases activated by fusion to the dimerizing partners Bcr or Tel (Abl, A1K, BMX, EphA3, EphB2, FGFR2, FGFR3, FGFR4, FGR, FLT1, FLT3, FLT4, FMS, IGF1R, InsR, JAK1, JAK2, JAK3, KDR, Kit, Lck, Lyn, MER, MET, PDGFRb, RET, RON, Ros-1, Src, Aurora, TIE2, TYK2, Tie1, ZAP70). The antiproliferative effect of these compounds on the different cell lines and on the non transformed cells were tested at 12 different concentrations of 3-fold serially diluted compounds in 384 well plates as described above (in media lacking IL3). The IC50 values of the compounds the different cell lines were determined from dose response curves.
The cell line used is the luciferase expressing Ba/F3 murine hematopoietic progenitor cell line transformed with human Tel-TrkA, Tel-TrkB or Tel-TrkC cDNAs (Ba/F3 EN A/B/C). These cells maintained in RPMI/10% fetal bovine serum (RPMI/FCS) supplemented with penicillin 50 mg/mL, streptomycin 50 mg/mL and L-glutamine […]. Untransformed Ba/F3 cells were similarly maintained with the addition 5 ng/ml of murine recombinant IL3. 50 μl of a Ba/F3 or Ba/F3 EN A/B/C cell suspension were plated in Greiner 384 well microplates (white)) at a density of 2000 cells per well. 50 nl of serially diluted test compound (10-0.0001 mM in DMSO solution) is added to each well. The cells were incubated for 48 hours at 37° C., 5% CO2. 25 μl of Bright Glo® (Promega) luciferase substrate is added to each well. The emited luminiscence is quantified using the ACQUEST™ luminescence system (Molecular Devices). IC50 values were calculated by linear regression analysis of the percentage inhibition of each compound at 12 concentrations.

Experiment [1] concerns the target T4, full length rTrkA and mNGF (Rattus norvegicus, UniProt P35739).
T4 construct: co-expressing full length rTrkA and mNGF; expressed in transfected cells; host or cells: Ba/F3 cells
Nature of the experiment: Inhibition of proliferation of Ba/F3 cells co-expressing full length rTrkA and mNGF (BaF3/TrkA-NFG). In kind it is cell-based. The note with it: BaF3 TRKA-NGF cells, CTG readout.

The subject of the next experiment is parental BaF3 cells. Description: Proliferation of parental (untransformed) Ba/F3 cells maintained with IL3. In kind it is cell-based, murine. The following applies: Mus musculus, BaF3, parental Ba/F3 cells; read-out: Ba/F3 IC 50. The gist of the method: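 Untransformed murine Ba/F3 cells kept in RPMI/10% FCS with 5 ng/ml murine IL3, plated at 2000 cells/well and exposed to 12 concentrations of compound for 48 h at 37 °C. Viability read by Bright-Glo luciferase luminescence; IC50 from linear regression of % inhibition.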

The next experiment relates to KM12 luc. Description: KM12 luc cell proliferation assay (Table 8). Format: cell-based. The following applies: KM12 luc cells; read-out: KM12 luc IC 50.

T4 sequence (P35739 33-799): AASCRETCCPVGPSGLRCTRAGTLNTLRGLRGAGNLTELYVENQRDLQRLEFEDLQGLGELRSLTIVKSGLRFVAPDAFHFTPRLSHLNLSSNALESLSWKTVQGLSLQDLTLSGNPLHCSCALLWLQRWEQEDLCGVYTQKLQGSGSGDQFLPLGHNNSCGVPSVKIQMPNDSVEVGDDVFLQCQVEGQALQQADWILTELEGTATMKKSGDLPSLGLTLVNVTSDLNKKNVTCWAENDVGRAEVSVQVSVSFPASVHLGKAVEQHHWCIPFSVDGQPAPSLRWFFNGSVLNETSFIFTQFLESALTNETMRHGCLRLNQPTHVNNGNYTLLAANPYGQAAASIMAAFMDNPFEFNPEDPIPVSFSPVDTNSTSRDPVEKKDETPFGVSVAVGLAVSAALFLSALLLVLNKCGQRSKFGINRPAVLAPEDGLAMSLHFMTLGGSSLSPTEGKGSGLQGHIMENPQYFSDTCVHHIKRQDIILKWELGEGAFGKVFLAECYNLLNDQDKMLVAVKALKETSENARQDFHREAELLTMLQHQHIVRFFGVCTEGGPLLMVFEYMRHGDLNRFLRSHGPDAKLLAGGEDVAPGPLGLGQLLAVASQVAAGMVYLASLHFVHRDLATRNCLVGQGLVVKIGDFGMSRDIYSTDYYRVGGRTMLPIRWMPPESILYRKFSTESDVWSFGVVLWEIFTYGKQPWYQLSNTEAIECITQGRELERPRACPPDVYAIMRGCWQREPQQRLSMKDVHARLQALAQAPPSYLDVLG
T4 sequence (P01139 122-241 partner): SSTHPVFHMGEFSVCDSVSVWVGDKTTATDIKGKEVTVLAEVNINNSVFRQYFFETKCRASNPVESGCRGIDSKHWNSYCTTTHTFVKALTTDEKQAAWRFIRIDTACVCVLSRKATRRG
T2 sequence (Q16620 538-822 limits assumed): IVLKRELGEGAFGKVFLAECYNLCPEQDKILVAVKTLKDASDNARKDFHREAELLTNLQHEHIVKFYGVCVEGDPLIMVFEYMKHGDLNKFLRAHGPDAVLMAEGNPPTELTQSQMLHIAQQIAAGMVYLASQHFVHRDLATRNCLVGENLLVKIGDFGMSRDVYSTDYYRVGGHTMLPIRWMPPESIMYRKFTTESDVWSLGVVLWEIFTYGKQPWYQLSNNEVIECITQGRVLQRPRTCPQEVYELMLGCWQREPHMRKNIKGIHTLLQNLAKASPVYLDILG
T3 sequence (Q16288 whole entry, the tested form may be a part): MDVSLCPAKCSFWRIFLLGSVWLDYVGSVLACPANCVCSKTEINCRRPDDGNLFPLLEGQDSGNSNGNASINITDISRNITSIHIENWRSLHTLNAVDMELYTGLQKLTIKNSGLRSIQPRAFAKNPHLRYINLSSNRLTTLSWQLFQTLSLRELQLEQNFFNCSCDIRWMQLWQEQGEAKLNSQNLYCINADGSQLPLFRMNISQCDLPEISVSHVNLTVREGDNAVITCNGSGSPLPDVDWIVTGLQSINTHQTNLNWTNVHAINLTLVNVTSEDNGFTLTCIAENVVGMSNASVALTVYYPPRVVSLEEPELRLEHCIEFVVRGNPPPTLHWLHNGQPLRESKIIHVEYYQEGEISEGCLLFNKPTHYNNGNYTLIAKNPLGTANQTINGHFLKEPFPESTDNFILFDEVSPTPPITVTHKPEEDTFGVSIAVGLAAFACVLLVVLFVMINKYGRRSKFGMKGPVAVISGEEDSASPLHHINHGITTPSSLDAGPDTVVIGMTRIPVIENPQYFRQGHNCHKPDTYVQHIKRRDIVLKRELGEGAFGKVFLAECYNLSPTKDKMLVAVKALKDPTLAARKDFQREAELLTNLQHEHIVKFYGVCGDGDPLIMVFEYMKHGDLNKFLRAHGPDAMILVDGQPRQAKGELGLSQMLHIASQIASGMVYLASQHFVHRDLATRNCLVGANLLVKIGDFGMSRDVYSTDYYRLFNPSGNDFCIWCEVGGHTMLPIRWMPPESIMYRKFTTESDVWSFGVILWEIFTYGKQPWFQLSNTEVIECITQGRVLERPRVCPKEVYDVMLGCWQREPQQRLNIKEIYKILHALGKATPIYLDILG
T1 sequence (P04629 510-796 limits assumed): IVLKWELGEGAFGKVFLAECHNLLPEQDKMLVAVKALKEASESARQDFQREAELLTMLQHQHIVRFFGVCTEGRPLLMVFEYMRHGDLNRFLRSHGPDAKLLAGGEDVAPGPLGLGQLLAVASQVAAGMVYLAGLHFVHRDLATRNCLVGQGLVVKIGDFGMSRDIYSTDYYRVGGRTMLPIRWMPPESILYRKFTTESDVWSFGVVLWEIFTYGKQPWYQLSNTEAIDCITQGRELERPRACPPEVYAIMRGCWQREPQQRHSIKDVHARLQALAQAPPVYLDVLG

With `C[C@H]1CN(c2ccc3ncc(-c4cccc(C#N)c4)n3n2)[C@H](c2ccccc2)C1(F)F` [Table 3-Compound 52], the IC50 was 12 nM on Tel-TrkA; 7.7 nM at Tel-TrkB; 4 nM on Tel-TrkC; greater than 10000 nM in the experiment with parental BaF3 cells; 6.5 nM with KM12 luc. Further, the “BaF3 TRKA-NGF CTG IC 50” value in experiment [1] was determined as 22 nM.

For the molecule `Fc1cccc(C2CCCN2c2ccc3ncc(-c4ccc5[nH]ccc5c4)n3n2)c1` (stereo not drawn) [Table 3-Compound 18], the IC50 on Tel-TrkA was 13 nM; at Tel-TrkB, 10 nM; at Tel-TrkC, 1.4 nM; in the experiment with parental BaF3 cells it was 7230 nM; in the experiment with KM12 luc, 24 nM. In addition, the “BaF3 TRKA-NGF CTG IC 50” value in experiment [1] came to 20 nM.

For `CN(C)CCN(C)c1cc(-c2cnc3ccc(N4CCCC4c4cc(F)ccc4F)nn23)ccc1C#N` (stereo not drawn) [Table 5-Compound 23], the IC50 on Tel-TrkA came out at 136 nM; on Tel-TrkB, 74 nM; on Tel-TrkC it was 16 nM; in the experiment with parental BaF3 cells, 3710 nM; in the experiment with KM12 luc, 109 nM. Further, in experiment [1], the “BaF3 TRKA-NGF CTG IC 50” value worked out at 111 nM.

In the case of `CC1(c2cccc(F)c2)CCCN1c1ccc2ncc(-c3ccc(C#N)cc3)n2n1` (stereo not drawn) [Table 3-Compound 91], the IC50 at Tel-TrkA worked out at 298 nM; on Tel-TrkB, 129 nM; at Tel-TrkC it was 33 nM; in the experiment with parental BaF3 cells it was 8410 nM; in the experiment with KM12 luc, 84 nM. Also, the “BaF3 TRKA-NGF CTG IC 50” value in experiment [1] turned out to be 720 nM.

For the molecule `CN1CCN(c2cnc(-c3cnc4ccc(N5CCCC5c5cccc(F)c5)nn34)cn2)CC1` (stereo not drawn) [Table 3-Compound 7], the IC50 was determined as 35 nM at Tel-TrkA; 52 nM on Tel-TrkB; 20 nM at Tel-TrkC; 5030 nM in the experiment with parental BaF3 cells; 23 nM with KM12 luc. Besides, the “BaF3 TRKA-NGF CTG IC 50” value in experiment [1] worked out at 27 nM.

For the molecule `N#Cc1cccc(-c2cnc3ccc(N4CCCC4c4ccccc4)nn23)c1` (stereo not drawn) [Table 3-Compound 54], the IC50 at Tel-TrkA is 86 nM; on Tel-TrkB it was 41 nM; on Tel-TrkC, 17 nM; in the experiment with parental BaF3 cells, greater than 10000 nM; in the experiment with KM12 luc it was 94 nM. Also, the “BaF3 TRKA-NGF CTG IC 50” value in experiment [1] is 111 nM.

As for `N#Cc1cccc(-n2cnc3ccc(N4CCSC4c4cc(F)ccc4F)nc32)c1` (stereo not drawn) [Table 1-Compound 3], the IC50 was 28 nM on Tel-TrkA; 22 nM at Tel-TrkB; 18 nM on Tel-TrkC; greater than 10000 nM with parental BaF3 cells; 37 nM in the experiment on KM12 luc. Moreover, the “BaF3 TRKA-NGF CTG IC 50” value in experiment [1] stood at 450 nM.

For `N#Cc1cccc(-n2cnc3ccc(N4CCCC4c4cccc(F)c4)nc32)c1` (stereo not drawn) [Table 1-Compound 1], the IC50 is 210 nM on Tel-TrkA; 150 nM on Tel-TrkB; 69 nM at Tel-TrkC; 16000 nM in the experiment with parental BaF3 cells; 230 nM in the experiment on KM12 luc. Moreover, the “BaF3 TRKA-NGF CTG IC 50” value in experiment [1] is 680 nM.

As for `N#Cc1ccc(-c2cnc3ccc(N4CCCC4c4cc(F)ccc4F)nn23)cc1N1CCC(N2CCOCC2)CC1` (stereo not drawn) [Table 5-Compound 13], the IC50 at Tel-TrkA stood at 3.5 nM; on Tel-TrkB it was 35 nM; at Tel-TrkC, 1.7 nM; with parental BaF3 cells, 4840 nM; in the experiment with KM12 luc it was 7.5 nM. Moreover, the “BaF3 TRKA-NGF CTG IC 50” value in experiment [1] was 5.3 nM.
